As a reminder, the IC50 is the concentration that gives 50% inhibition. A higher IC50 goes with weaker potency. By logD is commonly meant lipophilicity at a set pH, counting ionised and neutral species. A high value points to higher lipophilicity. The term solubility denotes how much of the substance goes into solution per volume.

This is an account of results in US8633168B2, “Inhibitors of S-adenosyl-L-methionine decarboxylase” (Genzyme Corporation, priority 2007, dated 2014).

Bounds are passed on as bounds.

In one data set the target is CYP2D6 (Homo sapiens, UniProt P10635). As to the kind of experiment: Cytochrome P450 inhibition, CYP2D6. An excerpt:
(§1) This cytochrome P450 high throughput IC50 inhibition assay is utilized for screening potential inhibitors of the 5 major human CYP isozyme catalytic activities (CYP3A4, 2D6, 2C9, 2C19, and 1A2).

For another data set, the target named is CYP2C9 (Homo sapiens, UniProt P11712). As to the kind of experiment: Cytochrome P450 inhibition, CYP2C9.
Chain of CYP2C9 (P11712 whole entry): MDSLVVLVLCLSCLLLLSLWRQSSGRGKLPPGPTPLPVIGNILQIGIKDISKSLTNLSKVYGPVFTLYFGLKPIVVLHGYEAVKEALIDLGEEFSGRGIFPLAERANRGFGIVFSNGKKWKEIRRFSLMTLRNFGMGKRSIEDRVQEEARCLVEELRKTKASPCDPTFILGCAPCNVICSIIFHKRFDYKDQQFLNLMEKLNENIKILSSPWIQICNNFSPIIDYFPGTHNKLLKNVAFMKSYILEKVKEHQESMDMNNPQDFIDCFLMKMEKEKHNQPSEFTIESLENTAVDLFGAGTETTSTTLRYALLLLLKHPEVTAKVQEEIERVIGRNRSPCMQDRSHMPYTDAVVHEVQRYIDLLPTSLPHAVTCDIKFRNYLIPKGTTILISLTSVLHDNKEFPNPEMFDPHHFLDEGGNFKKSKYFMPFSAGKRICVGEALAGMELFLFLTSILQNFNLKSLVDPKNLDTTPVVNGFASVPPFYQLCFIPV
Description: as §1

For the next data set, the system named is Schistosomes adult. As to the kind of experiment: Screening against Schistosomes, adult. Format: cell-based. The note with it: Screening Data.
A short description of data set [1]: Solubility in phosphate buffer. The format is physicochemical. The following applies: phosphate buffer, aqueous buffer, kinetic from dmso stock; Example 12 chart; pH 7.4. On the procedure: A stock solution for each test compound was prepared at 25 mM in DMSO. These were diluted into phosphate buffer and equilibrated for 16 hours at room temperature, and then filtered to remove precipitated compound. The UV absorbance of this equilibrated sample was compared to a single point reference standard.

For the next data set, the system named is Schistosomes lavae. As to the kind of experiment: Screening against Schistosomes, larvae. Format: cell-based. The following applies: Screening Data.
A further data set deals with CYP3A4 (Homo sapiens, UniProt P08684). As to the kind of experiment: Cytochrome P450 inhibition, CYP3A4.
Chain of CYP3A4 (P08684 whole entry): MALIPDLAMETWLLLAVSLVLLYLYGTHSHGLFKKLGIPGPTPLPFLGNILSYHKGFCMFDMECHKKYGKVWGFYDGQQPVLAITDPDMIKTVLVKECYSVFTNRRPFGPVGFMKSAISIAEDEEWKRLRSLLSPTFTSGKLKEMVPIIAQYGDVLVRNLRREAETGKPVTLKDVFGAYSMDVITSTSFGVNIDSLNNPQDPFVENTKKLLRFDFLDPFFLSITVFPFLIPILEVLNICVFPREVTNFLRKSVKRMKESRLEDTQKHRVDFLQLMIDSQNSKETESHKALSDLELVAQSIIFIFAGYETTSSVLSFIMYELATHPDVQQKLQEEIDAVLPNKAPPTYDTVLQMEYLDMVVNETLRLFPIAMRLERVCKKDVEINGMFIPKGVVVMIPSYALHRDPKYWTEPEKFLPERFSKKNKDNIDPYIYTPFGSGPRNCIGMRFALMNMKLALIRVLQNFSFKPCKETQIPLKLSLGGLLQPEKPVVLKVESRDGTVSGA
Description: as §1

For a further data set, the system named is T. b. brucei. As to the kind of experiment: Cell-based screening against T. b. brucei. Set-up: species or system Trypanosoma brucei brucei. The following applies: Screening Data, two values per compound. On the procedure:
The bloodstream form trypomastigotes of the three strains are maintained according to standard protocols established at STI.
Drug sensitivity assays are performed in sterile 96-well microtiter plates, with or without serial drug dilutions. The highest concentration for the test compounds is 90 μg/ml. Each drug is tested in duplicate. After 72 hours of incubation the plates are inspected microscopically to assure growth of the controls to determine the minimum inhibitory concentration (MIC), i.e., the lowest drug concentration at which no trypanosomes with normal morphology and motility can be seen compared to control wells. Cell viability is measured by Alamar blue staining and IC50 values are calculated.
Active compounds (IC50<0.2 μg/ml) are tested against the Trypanosoma brucei gambiense STIB 930 and the multi-drug resistant T. b. brucei STIB 950 following the same protocol as described above.
This example provides data relating to the biological screening results. MDL 73811 and selected new compounds 1-7 were tested against a variety of cell-based organisms and enzymes and the IC50 measured. In vitro ADME profiles were also obtained. Solubility, permeability, microsomal/hepatocyte stability, cychrome P450 inhibition and plasma protein binding characteristics were probed for each of the compounds. The methodology for these tests are described in previous paragraphs. The results are summarized in the following 2 charts.

The next data set addresses CYP2C19 (Homo sapiens, UniProt P33261). As to the kind of experiment: Cytochrome P450 inhibition, CYP2C19.
Description: as §1

The next data set addresses T1, CYP1A2 (Homo sapiens, UniProt P05177).
T1 sequence (P05177 1-516): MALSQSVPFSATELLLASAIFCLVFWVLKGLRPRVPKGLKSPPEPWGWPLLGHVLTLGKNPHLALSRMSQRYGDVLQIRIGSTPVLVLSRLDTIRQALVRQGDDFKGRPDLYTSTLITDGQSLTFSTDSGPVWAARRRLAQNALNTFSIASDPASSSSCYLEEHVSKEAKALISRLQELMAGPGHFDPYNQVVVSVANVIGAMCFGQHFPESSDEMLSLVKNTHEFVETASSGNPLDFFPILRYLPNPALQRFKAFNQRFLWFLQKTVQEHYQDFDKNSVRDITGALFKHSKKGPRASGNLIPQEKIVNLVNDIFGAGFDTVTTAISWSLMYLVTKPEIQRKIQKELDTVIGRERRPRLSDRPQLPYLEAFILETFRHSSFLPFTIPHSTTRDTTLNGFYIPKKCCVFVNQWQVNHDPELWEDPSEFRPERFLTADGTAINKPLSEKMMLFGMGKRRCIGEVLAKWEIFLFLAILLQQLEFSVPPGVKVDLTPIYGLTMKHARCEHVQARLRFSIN
Nature of the data set: Cytochrome P450 inhibition, CYP1A2.
Description: as §1

Chain of CYP2C19 (P33261 whole entry): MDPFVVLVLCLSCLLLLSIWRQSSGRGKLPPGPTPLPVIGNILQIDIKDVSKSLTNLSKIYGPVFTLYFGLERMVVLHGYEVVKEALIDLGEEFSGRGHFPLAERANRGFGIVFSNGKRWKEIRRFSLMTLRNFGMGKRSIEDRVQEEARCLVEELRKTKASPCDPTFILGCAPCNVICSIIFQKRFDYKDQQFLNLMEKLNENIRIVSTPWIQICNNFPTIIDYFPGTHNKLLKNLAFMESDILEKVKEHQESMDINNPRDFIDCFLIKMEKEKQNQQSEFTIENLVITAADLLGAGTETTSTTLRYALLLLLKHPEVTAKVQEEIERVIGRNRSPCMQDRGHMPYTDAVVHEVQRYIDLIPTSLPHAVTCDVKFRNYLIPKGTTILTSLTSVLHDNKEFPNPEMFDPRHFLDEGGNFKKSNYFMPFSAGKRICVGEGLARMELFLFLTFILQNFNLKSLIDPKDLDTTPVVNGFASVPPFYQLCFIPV
Chain of CYP2D6 (P10635 whole entry): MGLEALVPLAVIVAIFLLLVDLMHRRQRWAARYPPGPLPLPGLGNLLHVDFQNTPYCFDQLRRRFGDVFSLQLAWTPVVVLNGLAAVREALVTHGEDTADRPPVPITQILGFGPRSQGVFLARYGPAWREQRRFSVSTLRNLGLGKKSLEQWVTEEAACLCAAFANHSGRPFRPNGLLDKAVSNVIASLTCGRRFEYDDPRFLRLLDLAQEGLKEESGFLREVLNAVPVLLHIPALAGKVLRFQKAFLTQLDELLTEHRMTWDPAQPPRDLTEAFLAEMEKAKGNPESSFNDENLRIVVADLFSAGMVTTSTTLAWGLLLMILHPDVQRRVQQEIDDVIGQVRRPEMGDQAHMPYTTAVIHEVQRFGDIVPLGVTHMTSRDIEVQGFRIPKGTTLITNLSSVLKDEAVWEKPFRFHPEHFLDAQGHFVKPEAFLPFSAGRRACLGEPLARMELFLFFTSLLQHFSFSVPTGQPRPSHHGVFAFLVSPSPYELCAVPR

For `Cc1nc(N)c2ncn([C@@H]3O[C@H](CN(C)C/C=C\CN)[C@@H](O)[C@H]3O)c2n1` [Compound 5], the IC50 against CYP2D6 was greater than 5 µM; at CYP2C9, greater than 5 µM; in the data set on Schistosomes adult, greater than 10 µM; in the data set with Schistosomes lavae it was greater than 10 µM; at CYP3A4, greater than 5 µM; in the data set with T. b. brucei (Trypanosoma brucei), greater than 14 µM. Moreover, the IC50 against CYP2C19 and at CYP1A2 was greater than 5 µM throughout. In “LogD”, this compound came in with a logD of less than 1. The same compound yielded a solubility at 16 hours in data set [1] greater than 49 µg/mL.

For the compound `CCc1nc2c(N)ncnc2n1[C@@H]1O[C@H](CN(C)C/C=C\CN)[C@@H](O)[C@H]1O` [Compound 6], the IC50 on CYP2D6 was greater than 5 µM; on CYP2C9, greater than 5 µM; in the data set on Schistosomes adult it was greater than 10 µM; with Schistosomes lavae it was greater than 10 µM; against CYP3A4, greater than 5 µM; in the data set on T. b. brucei it was 0.64 µM. The IC50 is 1.16 µM in the data set on T. b. brucei (Trypanosoma brucei), greater than 5 µM on CYP2C19 and greater than 5 µM against CYP1A2. The compound also returned a logD in “LogD” of less than 1. The compound further gave a solubility at 16 hours in [1] greater than 51 µg/mL.

`CCCc1nc2c(N)ncnc2n1[C@@H]1O[C@H](CN(C)C/C=C\CN)[C@@H](O)[C@H]1O` [Compound 7]: the IC50 is greater than 5 µM at CYP2D6; greater than 5 µM at CYP2C9; greater than 10 µM with Schistosomes adult; greater than 10 µM with Schistosomes lavae; greater than 5 µM against CYP3A4; 9.4 µM in the data set with T. b. brucei. Moreover, the figures for the IC50 with T. b. brucei (Trypanosoma brucei), against CYP2C19 and at CYP1A2 were 12.7 µM, greater than 5 µM and greater than 5 µM, respectively. The compound further showed a logD in “LogD” of less than 1. In addition, in data set [1], the solubility at 16 hours was greater than 52 µg/mL.
